ChEMBL document CHEMBL1123796, “New antitumor agents containing the anthracene nucleus” (1987)

Tests used:
Type in all cases: functional
Mus musculus [1] = test: Tested for skin toxicity in BALB/c mice at a significant dose of 0.75 mg/kg administered intraintradermally and involved concentric circular areas of induration.
Mus musculus [2] = test: Tested for percent average weekly weight change in mice at a significant dose of 70 mg/kg administered intraperitoneally after 5 days of treatment; conditions: route intraperitoneal
[3] = Tested in vitro for inhibitory activity of human tumor cell growth against HEC 1A endometrial tumor, by using clonogenic assays.; conditions: read-out: ID50 (the source's name)
L1210 [4] = test: Effect on protein synthesis was determined by incorporation of radioligand into L1210 murine leukemia at a concentration of 1 ug/mL. (*: >1 log cell kill); conditions: Mus musculus
Mus musculus [5] = test: Tested for skin toxicity in BALB/c mice at a significant dose of 1.25 mg/kg administered intraintradermally and involved concentric circular areas of induration.
L1210 [6] = test: Effect on RNA synthesis was determined by incorporation of radioligand into L1210 murine leukemia at a concentration of 10 ug/mL (*: >1 log cell kill); conditions: Mus musculus
P388 [7] = test: Antileukemic activity against P-388 in mice at a dose of 60 mg/kg administered intraperitoneally after 5 day treatment; conditions: Mus musculus, P388, ip, 120 h, route intraperitoneal
L1210 [8] = test: Antileukemic activity against L-1210 cells in mice at a dose of 60 mg/kg administered intraperitoneally after 1 day treatment; conditions: Mus musculus, L1210, ip, 24 h, route intraperitoneal
Mus musculus [9] = test: Tested for skin toxicity in BALB/c mice at a significant dose of 2.00 mg/kg administered intraintradermally and involved concentric circular areas of induration.
Mus musculus [10] = test: Tested for high-dose toxicity in mice at a significant dose of 90 mg/kg administered intraperitoneally after 5 days of treatment; conditions: route intraperitoneal
Mus musculus [11] = test: Tested for skin toxicity in BALB/c mice at a significant dose of 0.75 mg/kg administered intraintradermally and involved concentric circular areas of ulceration
Mus musculus [12] = test: Tested for skin toxicity in BALB/c mice at a significant dose of 2.00 mg/kg administered intraintradermally and involved concentric circular areas of erythema
Mus musculus [13] = test: Tested for percent average weekly weight change in mice at a significant dose of 80 mg/kg administered intraperitoneally; conditions: route intraperitoneal
L1210 [14] = test: Antileukemic activity against L-1210 cells in mice at a dose of 30 mg/kg administered intraperitoneally after 5 day treatment; conditions: Mus musculus, L1210, ip, 120 h, route intraperitoneal
RPMI-8226 [15] = test: Effect on RNA synthesis was determined by incorporation of radioligand into 8226 human myeloma cells at a concentration of 0.01 ug/mL
RPMI-8226 [16] = test: Effect on RNA synthesis was determined by incorporation of radioligand into 8226 human myeloma cells at a concentration of 10 ug/mL (*: >1 log cell kill)
L1210 [17] = test: Effect on protein synthesis was determined by incorporation of radioligand into L1210 murine leukemia at a concentration of 10 ug/mL (*: >1 log cell kill); conditions: Mus musculus
Mus musculus [18] = test: Tested for high-dose toxicity in mice at a significant dose of 80 mg/kg administered intraperitoneally after 5 days of treatment; conditions: route intraperitoneal
L1210 [19] = test: Antileukemic activity against L-1210 cells in mice at a dose of 80 mg/kg administered intraperitoneally after 1 day treatment; conditions: Mus musculus, L1210, ip, 24 h, route intraperitoneal
RPMI-8226 [20] = test: Effect on DNA synthesis was determined by incorporation of radioligand into 8226 human myeloma cells at a concentration of 0.01 ug/mL
L1210 [21] = test: Antileukemic activity against L-1210 cells in mice at a dose of 90 mg/kg administered intraperitoneally after 1 day treatment; conditions: Mus musculus, L1210, ip, 24 h, route intraperitoneal
Mus musculus [22] = test: Tested for high-dose toxicity in mice at a significant dose of 80 mg/kg administered intraperitoneally after 1 days of treatment; conditions: route intraperitoneal
P388 [23] = test: Antileukemic activity against P-388 in mice at a dose of 30 mg/kg administered intraperitoneally after 5 day treatment; conditions: Mus musculus, P388, ip, 120 h, route intraperitoneal
Mus musculus [24] = test: Tested for skin toxicity in BALB/c mice at a significant dose of 0.75 mg/kg administered intraintradermally and involved concentric circular areas of erythema
P388 [25] = test: Antileukemic activity against P-388 in mice at a dose of 90 mg/kg administered intraperitoneally after 1 day treatment; conditions: Mus musculus, P388, ip, 24 h, route intraperitoneal
RPMI-8226 [26] = test: Effect on DNA synthesis was determined by incorporation of radioligand into 8226 human myeloma cells at a concentration of 10 ug/mL (*: >1 log cell kill)
RPMI-8226 [27] = test: Effect on protein synthesis was determined by incorporation of radioligand into 8226 human myeloma cells at a concentration of 10 ug/mL (*: >1 log cell kill)
RPMI-8226 [28] = test: Effect on DNA synthesis was determined by incorporation of radioligand into 8226 human myeloma cells at a concentration of 1 ug/mL. (*: >1 log cell kill)
RPMI-8226 [29] = test: Effect on RNA synthesis was determined by incorporation of radioligand into 8226 human myeloma cells at a concentration of 1 ug/mL. (*: >1 log cell kill)
Mus musculus [30] = test: Tested for skin toxicity in BALB/c mice at a significant dose of 0.25 mg/kg administered intraintradermally and involved concentric circular areas of erythema
L1210 [31] = test: Effect on RNA synthesis was determined by incorporation of radioligand into L1210 murine leukemia at a concentration of 0.3 ug/mL (*: >50% cell kill); conditions: Mus musculus
Mus musculus [32] = test: Tested for skin toxicity in BALB/c mice administered intraintradermally and involved concentric circular areas of ulceration
RPMI-8226 [33] = test: In vitro inhibition of human 8226 myeloma tumor cell line growth.; conditions: read-out: ID50 (the source's name)
P388 [34] = test: Antileukemic activity against P-388 in mice at a dose of 70 mg/kg administered intraperitoneally after 1 day treatment; conditions: Mus musculus, P388, ip, 24 h, route intraperitoneal
Mus musculus [35] = test: Tested for percent average weekly weight change in mice at a significant dose of 100 mg/kg administered intraperitoneally in mice after 5 days of treatment; conditions: route intraperitoneal
P388 [36] = test: Antileukemic activity against P-388 in mice at a dose of 80 mg/kg administered intraperitoneally after 1 day treatment; conditions: Mus musculus, P388, ip, 24 h, route intraperitoneal
L1210 [37] = test: Effect on protein synthesis was determined by incorporation of radioligand into L1210 murine leukemia at a concentration of 0.3 ug/mL (*: >50% cell kill); conditions: Mus musculus
L1210 [38] = test: Effect on DNA synthesis was determined by incorporation of radioligand into L1210 murine leukemia at a concentration of 1 ug/mL. (*: >1 log cell kill); conditions: Mus musculus
Mus musculus [39] = test: Tested for percent average weekly weight change in mice at a significant dose of 30 mg/kg administered intraperitoneally; conditions: route intraperitoneal
L1210 [40] = test: Effect on RNA synthesis was determined by incorporation of radioligand into L1210 murine leukemia at a concentration of 0.5 ug/mL. (*: >1 log cell kill); conditions: Mus musculus
L1210 [41] = test: Effect on DNA synthesis was determined by incorporation of radioligand into L1210 murine leukemia at a concentration of 0.01 ug/mL; conditions: Mus musculus

CN(C)CCNCc1c2ccccc2c(CNCCN(C)C)c2ccccc12
Extent of skin lesions (Mus musculus [1]): 1.7 cm**2 | Average weekly weight change (Mus musculus [2]): -7% | IC50 [3]: 360 nM | inhibition at 1 µg/mL (L1210 [4]): 31.2% | Extent of skin lesions (Mus musculus [5]): 4.3 cm**2 | inhibition at 10 µg/mL (L1210 [6]): 96.3% | ILS at 60 mg/kg (P388 [7]): 25% | ILS at 60 mg/kg (L1210 [8]): 17% | Extent of skin lesions (Mus musculus [9]): 5.3 cm**2 | Lethality (Mus musculus [10]): 20% | Median day of death (Mus musculus [10]): 3 | Extent of skin lesions (Mus musculus [11]): 1 cm**2 | Extent of skin lesions (Mus musculus [12]): 3.1 cm**2 | Lethality (Mus musculus [13]): -3% | ILS at 30 mg/kg (L1210 [14]): 5% | inhibition at 0.01 µg/mL (RPMI-8226 [15]): 0% | inhibition at 10 µg/mL (RPMI-8226 [16]): 91.4% | inhibition at 10 µg/mL (L1210 [17]): 87.3% | Lethality (Mus musculus [18]): 20% | Median day of death (Mus musculus [18]): 4 | ILS at 80 mg/kg (L1210 [19]): 14% | inhibition at 0.01 µg/mL (RPMI-8226 [20]): 0% | ILS at 90 mg/kg (L1210 [21]): 3% | Lethality (Mus musculus [22]): 10% | Median day of death (Mus musculus [22]): 12 | ILS at 30 mg/kg (P388 [23]): 0% | Extent of skin lesions (Mus musculus [24]): 1.3 cm**2 | ILS at 90 mg/kg (P388 [25]): -10% | inhibition at 10 µg/mL (RPMI-8226 [26]): 82.2% | inhibition at 10 µg/mL (RPMI-8226 [27]): 17.6% | inhibition at 1 µg/mL (RPMI-8226 [28]): 21.1% | inhibition at 1 µg/mL (RPMI-8226 [29]): 70.4% | Extent of skin lesions (Mus musculus [30]): 0.3 cm**2 | inhibition at 0.3 µg/mL (L1210 [31]): 0% | Extent of skin lesions (Mus musculus [32]): 1.9 cm**2 | IC50 (RPMI-8226 [33]): 160 nM | ILS at 70 mg/kg (P388 [34]): 27% | Average weekly weight change (Mus musculus [35]): -15% | ILS at 80 mg/kg (P388 [36]): 36% | inhibition at 0.3 µg/mL (L1210 [37]): 9.8% | inhibition at 1 µg/mL (L1210 [38]): 48.7% | Average weekly weight change (Mus musculus [39]): -3% | inhibition at 0.5 µg/mL (L1210 [40]): 7.2% | inhibition at 0.01 µg/mL (L1210 [41]): 0%
